Results taken from the NIST ThermoML archive (doi:10.1016/j.jct.2018.03.021).
± gives the expanded uncertainty stated by the source.

Legend:
[1] = xn = mol fraction of the nth substance listed; details: 100 kPa, Liquid, Vibrating tube method
[2] = molar heat capacity at constant pressure; xn = mol fraction of the nth substance listed; details: 100 kPa, Liquid, Extra sensitive DSC

## Cc1ccc(C(C)C)cc1 [1-(1-methylethyl)-4-methylbenzene] + CCCO
[1]; 298.15 K, x1 = 0.0499
  mass density: 804.92 ± 0.71 kg/m3
[1]; 298.15 K, x1 = 0.1007
  mass density: 809.8 ± 0.71 kg/m3
[1]; 298.15 K, x1 = 0.2029
  mass density: 818.12 ± 0.71 kg/m3
[1]; 298.15 K, x1 = 0.3021
  mass density: 824.8 ± 0.71 kg/m3
[1]; 298.15 K, x1 = 0.4032
  mass density: 830.42 ± 0.71 kg/m3
[1]; 298.15 K, x1 = 0.5045
  mass density: 835.28 ± 0.71 kg/m3
[1]; 298.15 K, x1 = 0.6044
  mass density: 839.47 ± 0.71 kg/m3
[1]; 298.15 K, x1 = 0.6974
  mass density: 842.95 ± 0.71 kg/m3
[1]; 298.15 K, x1 = 0.8035
  mass density: 846.57 ± 0.71 kg/m3
[1]; 298.15 K, x1 = 0.8989
  mass density: 849.61 ± 0.71 kg/m3
[1]; 298.15 K, x1 = 0.9508
  mass density: 851.22 ± 0.71 kg/m3
[1]; 298.15 K, x1 = 1
  mass density: 852.99 ± 0.71 kg/m3
[1]; 308.15 K, x1 = 0.0499
  mass density: 796.73 ± 0.71 kg/m3
[1]; 308.15 K, x1 = 0.1007
  mass density: 801.54 ± 0.71 kg/m3
[1]; 308.15 K, x1 = 0.2029
  mass density: 809.76 ± 0.71 kg/m3
[1]; 308.15 K, x1 = 0.3021
  mass density: 816.37 ± 0.71 kg/m3
[1]; 308.15 K, x1 = 0.4032
  mass density: 821.98 ± 0.71 kg/m3
[1]; 308.15 K, x1 = 0.5045
  mass density: 826.83 ± 0.71 kg/m3
[1]; 308.15 K, x1 = 0.6044
  mass density: 831.05 ± 0.71 kg/m3
[1]; 308.15 K, x1 = 0.6974
  mass density: 834.57 ± 0.71 kg/m3
[1]; 308.15 K, x1 = 0.8035
  mass density: 838.26 ± 0.71 kg/m3
[1]; 308.15 K, x1 = 0.8989
  mass density: 841.39 ± 0.71 kg/m3
[1]; 308.15 K, x1 = 0.9508
  mass density: 843.07 ± 0.71 kg/m3
[1]; 308.15 K, x1 = 1
  mass density: 844.94 ± 0.71 kg/m3
[1]; 318.15 K, x1 = 0.0499
  mass density: 788.38 ± 0.71 kg/m3
[1]; 318.15 K, x1 = 0.1007
  mass density: 793.11 ± 0.71 kg/m3
[1]; 318.15 K, x1 = 0.2029
  mass density: 801.22 ± 0.71 kg/m3
[1]; 318.15 K, x1 = 0.3021
  mass density: 807.78 ± 0.71 kg/m3
[1]; 318.15 K, x1 = 0.4032
  mass density: 813.38 ± 0.71 kg/m3
[1]; 318.15 K, x1 = 0.5045
  mass density: 818.25 ± 0.71 kg/m3
[1]; 318.15 K, x1 = 0.6044
  mass density: 822.51 ± 0.71 kg/m3
[1]; 318.15 K, x1 = 0.6974
  mass density: 826.09 ± 0.71 kg/m3
[1]; 318.15 K, x1 = 0.8035
  mass density: 829.87 ± 0.71 kg/m3
[1]; 318.15 K, x1 = 0.8989
  mass density: 833.1 ± 0.71 kg/m3
[1]; 318.15 K, x1 = 0.9508
  mass density: 834.88 ± 0.71 kg/m3
[1]; 318.15 K, x1 = 1
  mass density: 836.86 ± 0.71 kg/m3
[1]; 328.15 K, x1 = 0.0499
  mass density: 779.8 ± 0.71 kg/m3
[1]; 328.15 K, x1 = 0.1007
  mass density: 784.46 ± 0.71 kg/m3
[1]; 328.15 K, x1 = 0.2029
  mass density: 792.47 ± 0.71 kg/m3
[1]; 328.15 K, x1 = 0.3021
  mass density: 798.98 ± 0.71 kg/m3
[1]; 328.15 K, x1 = 0.4032
  mass density: 804.59 ± 0.71 kg/m3
[1]; 328.15 K, x1 = 0.5045
  mass density: 809.51 ± 0.71 kg/m3
[1]; 328.15 K, x1 = 0.6044
  mass density: 813.82 ± 0.71 kg/m3
[1]; 328.15 K, x1 = 0.6974
  mass density: 817.49 ± 0.71 kg/m3
[1]; 328.15 K, x1 = 0.8035
  mass density: 821.37 ± 0.71 kg/m3
[1]; 328.15 K, x1 = 0.8989
  mass density: 824.75 ± 0.71 kg/m3
[1]; 328.15 K, x1 = 0.9508
  mass density: 826.65 ± 0.71 kg/m3
[1]; 328.15 K, x1 = 1
  mass density: 828.75 ± 0.71 kg/m3
[2]; 298.8 K, x1 = 0.0499
  molar heat capacity at constant pressure: 151.2 ± 5.9 J/K/mol
[2]; 298.8 K, x1 = 0.1007
  molar heat capacity at constant pressure: 159.6 ± 6.2 J/K/mol
[2]; 298.8 K, x1 = 0.2029
  molar heat capacity at constant pressure: 174.5 ± 6.8 J/K/mol
[2]; 298.8 K, x1 = 0.3021
  molar heat capacity at constant pressure: 186.9 ± 7.2 J/K/mol
[2]; 298.8 K, x1 = 0.4032
  molar heat capacity at constant pressure: 198.6 ± 7.7 J/K/mol
[2]; 298.8 K, x1 = 0.5045
  molar heat capacity at constant pressure: 210.6 ± 8.2 J/K/mol
[2]; 298.8 K, x1 = 0.6044
  molar heat capacity at constant pressure: 221 ± 8.6 J/K/mol
[2]; 298.8 K, x1 = 0.6974
  molar heat capacity at constant pressure: 229.1 ± 8.9 J/K/mol
[2]; 298.8 K, x1 = 0.8035
  molar heat capacity at constant pressure: 237.6 ± 9.2 J/K/mol
[2]; 298.8 K, x1 = 0.8989
  molar heat capacity at constant pressure: 242.2 ± 9.4 J/K/mol
[2]; 298.8 K, x1 = 0.9508
  molar heat capacity at constant pressure: 242.4 ± 9.4 J/K/mol
[2]; 298.8 K, x1 = 1
  molar heat capacity at constant pressure: 240.9 ± 9.3 J/K/mol
[2]; 308.7 K, x1 = 0.0499
  molar heat capacity at constant pressure: 158.5 ± 6.1 J/K/mol
[2]; 308.7 K, x1 = 0.1007
  molar heat capacity at constant pressure: 166.5 ± 6.5 J/K/mol
[2]; 308.7 K, x1 = 0.2029
  molar heat capacity at constant pressure: 182.2 ± 7.1 J/K/mol
[2]; 308.7 K, x1 = 0.3021
  molar heat capacity at constant pressure: 194 ± 7.5 J/K/mol
[2]; 308.7 K, x1 = 0.4032
  molar heat capacity at constant pressure: 206.1 ± 8 J/K/mol
[2]; 308.7 K, x1 = 0.5045
  molar heat capacity at constant pressure: 217.2 ± 8.4 J/K/mol
[2]; 308.7 K, x1 = 0.6044
  molar heat capacity at constant pressure: 227.2 ± 8.8 J/K/mol
[2]; 308.7 K, x1 = 0.6974
  molar heat capacity at constant pressure: 235 ± 9.1 J/K/mol
[2]; 308.7 K, x1 = 0.8035
  molar heat capacity at constant pressure: 242.8 ± 9.4 J/K/mol
[2]; 308.7 K, x1 = 0.8989
  molar heat capacity at constant pressure: 246.2 ± 9.5 J/K/mol
[2]; 308.7 K, x1 = 0.9508
  molar heat capacity at constant pressure: 245.3 ± 9.5 J/K/mol
[2]; 308.7 K, x1 = 1
  molar heat capacity at constant pressure: 244.8 ± 9.5 J/K/mol
[2]; 318.6 K, x1 = 0.0499
  molar heat capacity at constant pressure: 165.9 ± 6.4 J/K/mol
[2]; 318.6 K, x1 = 0.1007
  molar heat capacity at constant pressure: 173.5 ± 6.7 J/K/mol
[2]; 318.6 K, x1 = 0.2029
  molar heat capacity at constant pressure: 188.4 ± 7.3 J/K/mol
[2]; 318.6 K, x1 = 0.3021
  molar heat capacity at constant pressure: 201.2 ± 7.8 J/K/mol
[2]; 318.6 K, x1 = 0.4032
  molar heat capacity at constant pressure: 213.2 ± 8.3 J/K/mol
[2]; 318.6 K, x1 = 0.5045
  molar heat capacity at constant pressure: 223.9 ± 8.7 J/K/mol
[2]; 318.6 K, x1 = 0.6044
  molar heat capacity at constant pressure: 233.3 ± 9 J/K/mol
[2]; 318.6 K, x1 = 0.6974
  molar heat capacity at constant pressure: 240.8 ± 9.3 J/K/mol
[2]; 318.6 K, x1 = 0.8035
  molar heat capacity at constant pressure: 248.1 ± 9.6 J/K/mol
[2]; 318.6 K, x1 = 0.8989
  molar heat capacity at constant pressure: 250.4 ± 9.7 J/K/mol
[2]; 318.6 K, x1 = 0.9508
  molar heat capacity at constant pressure: 248.8 ± 9.6 J/K/mol
[2]; 318.6 K, x1 = 1
  molar heat capacity at constant pressure: 249.4 ± 9.7 J/K/mol
[2]; 328.5 K, x1 = 0.0499
  molar heat capacity at constant pressure: 173.4 ± 6.7 J/K/mol
[2]; 328.5 K, x1 = 0.1007
  molar heat capacity at constant pressure: 180.7 ± 7 J/K/mol
[2]; 328.5 K, x1 = 0.2029
  molar heat capacity at constant pressure: 195.4 ± 7.6 J/K/mol
[2]; 328.5 K, x1 = 0.3021
  molar heat capacity at constant pressure: 208.3 ± 8.1 J/K/mol
[2]; 328.5 K, x1 = 0.4032
  molar heat capacity at constant pressure: 220.7 ± 8.5 J/K/mol
[2]; 328.5 K, x1 = 0.5045
  molar heat capacity at constant pressure: 231.2 ± 9 J/K/mol
[2]; 328.5 K, x1 = 0.6044
  molar heat capacity at constant pressure: 240.2 ± 9.3 J/K/mol
[2]; 328.5 K, x1 = 0.6974
  molar heat capacity at constant pressure: 246.8 ± 9.6 J/K/mol
[2]; 328.5 K, x1 = 0.8035
  molar heat capacity at constant pressure: 253.4 ± 9.8 J/K/mol
[2]; 328.5 K, x1 = 0.8989
  molar heat capacity at constant pressure: 254.5 ± 9.9 J/K/mol
[2]; 328.5 K, x1 = 0.9508
  molar heat capacity at constant pressure: 252.6 ± 9.8 J/K/mol
[2]; 328.5 K, x1 = 1
  molar heat capacity at constant pressure: 254.6 ± 9.9 J/K/mol
